Our source for the KD and binding values is paper PMC4742130 (2015).

A word on the KD: it is the constant that tells how readily two partners part at equilibrium.

Molecules are shown by their SMILES.

Assay [1] deals with HTG22 (DNA, G4) AGGGTTAGGGTTAGGGTTAGGG
The assay can be described thus: SPR, Langmuir kinetic fit. As to conditions: 100 mM KCl; 50 mM Tris-HCl, pH 7.4, 25 °C; highest concentration 20 μM. For orientation: SPR reads the build-up and loss of mass on a sensor chip optically.

Assay [2] deals with F21T (DNA, G4) GGGTTAGGGTTAGGGTTAGGG
The assay can be described thus: FRET melting. Particulars: 60 mM KCl; 10 mM Tris-HCl, pH 7.4; 0.2 μM DNA; 1 μM compound (Figure S2A).

In assay [3] the test system is HTG21 (DNA, G4) GGGTTAGGGTTAGGGTTAGGG
The assay can be described thus: CD titration. Particulars: no added K+ or Na+; 10 mM Tris-HCl, pH 7.4, 25 °C; 5 μM DNA; 0 to 5 mol equiv; induces antiparallel G4.

For assay [4], the system named is hairpin duplex DNA (DNA, hairpin) TTTTTTTTTCGAATTCGTTTTTCGAATTCG
The assay can be described thus: SPR, Langmuir kinetic fit. Particulars: 100 mM KCl; 50 mM Tris-HCl, pH 7.4, 25 °C; highest concentration 20 μM.

`COc1ccc2cc3[n+](cc2c1NCCCN1CCCC1)CCc1cc2c(cc1-3)OCO2` came in with an equilibrium dissociation constant (KD) in assay [1] of 29 µM.

In assay [1], `COc1ccc2cc3[n+](cc2c1NCCCN1CCCCC1)CCc1cc2c(cc1-3)OCO2` returned a KD of 149 µM. This KD is about 5.1-fold higher than that of the molecule before.

For the molecule `COc1ccc2cc3[n+](cc2c1NCCN1CCCCC1)CCc1cc2c(cc1-3)OCO2`, in assay [1], the KD was 10.8 µM.

With `COc1ccc2cc3[n+](cc2c1NCCO)CCc1cc2c(cc1-3)OCO2`, the KD in assay [1] amounted to 680 µM. Compared with the last molecule, the KD is about 63-fold higher.

In the case of `COc1ccc2cc3[n+](cc2c1OC)CCc1cc2c(cc1-3)OCO2`, the binding result in assay [2] was “weak”. In assay [1], this molecule came in with a KD of 170 µM.

As to `COc1ccc2cc3[n+](cc2c1OCCCCCCCl)CCc1cc2c(cc1-3)OCO2`, the binding result in assay [3] and in assay [1] was “yes” throughout.

Take `COc1ccc2cc3[n+](cc2c1OCCCNC(=O)C(N)CCCCN)CCc1cc2c(cc1-3)OCO2` (stereo not shown): the KD in assay [1] came to 7.57 µM; in assay [4], 28900 µM.

Turning to `COc1ccc2cc3[n+](cc2c1OCCCNC(=O)C(N)CCCNC(=N)N)CCc1cc2c(cc1-3)OCO2` (stereo not shown), the KD in assay [1] was found to be 10.5 µM; in assay [4], 13900 µM.

Molecule `COc1ccc2cc3[n+](cc2c1OCCN)CCc1cc2c(cc1-3)OCO2` came in with a dissociation constant (KD) in assay [1] of 133 µM.
